Data: patent EP0908457B1, “3-(1,2-benzisothiazol- and isoxazol-5-Y1)-2,4(1H,3H)-pyrimidinedione or thione and 3-(1,2-benzisothiazol- and isoxazol-5-y1)-4(3H)-pyrimidinone or thione herbicidal agents” (BASF AKTIENGESELLSCHAFT, priority 1997, dated 1999)

Columns and labels:
[1] = system: Oryza sativa, (L.) Tebonnet; test: Rice tolerance to post-transplant applications under flooded paddy conditions (Example 187), ORYSAT (Rice, Tebonnet); conditions: rated three to four weeks after treatment
[2] = system: Cyperus serotinus, Rottb.; test: Preemergence weed control under flooded paddy conditions, CYPSE (Flatsedge); assay type: in vivo; conditions: preemergence weeds, rated three to four weeks after treatment
Cyperus iria = test: Preemergence weed control under flooded paddy conditions, CYPIR (Rice Flatsedge); assay type: in vivo; conditions: preemergence weeds, flooded paddy, rated three to four weeks after treatment
[3] = system: Monochoria vaginalis, Presl.; test: Preemergence weed control under flooded paddy conditions, MOOVA (Monochoria); assay type: in vivo; conditions: preemergence weeds, flooded paddy, rated three to four weeks after treatment
[4] = system: Echinochloa oryzoides (Ard.) Fritsch.; test: Preemergence weed control under flooded paddy conditions, ECHORC (Watergrass (Calif.)); assay type: in vivo; conditions: preemergence weeds, flooded paddy, rated three to four weeks after treatment
Sagittaria pygmaea, L. = test: Preemergence weed control under flooded paddy conditions, SAGPY (Arrowhead (Pygmaea)); assay type: in vivo; conditions: preemergence weeds, flooded paddy, rated three to four weeks after treatment
Further: meaning of each grade not given here.

Structure (SMILES)	herbicidal effect rating ORYSAT ([1]; Rate 0.0320 kg/ha)	herbicidal effect rating ORYSAT ([1]; Rate 0.0620 kg/ha)	herbicidal effect rating ORYSAT ([1]; Rate 0.1250 kg/ha)	herbicidal effect rating ORYSAT ([1]; Rate 0.2500 kg/ha)	herbicidal effect rating, CYPSE ([2]; Rate 0.0320 kg/ha)	herbicidal effect rating, CYPSE ([2]; Rate 0.0620 kg/ha)	herbicidal effect rating, CYPSE ([2]; Rate 0.1250 kg/ha)	herbicidal effect rating, CYPSE ([2]; Rate 0.2500 kg/ha)	herbicidal effect rating, CYPIR (Cyperus iria; Rate 0.0320 kg/ha)	herbicidal effect rating, CYPIR (Cyperus iria; Rate 0.0620 kg/ha)	herbicidal effect rating, CYPIR (Cyperus iria; Rate 0.1250 kg/ha)	herbicidal effect rating, CYPIR (Cyperus iria; Rate 0.2500 kg/ha)	herbicidal effect rating, MOOVA ([3]; Rate 0.0320 kg/ha)	herbicidal effect rating, MOOVA ([3]; Rate 0.0620 kg/ha)	herbicidal effect rating, MOOVA ([3]; Rate 0.1250 kg/ha)	herbicidal effect rating, MOOVA ([3]; Rate 0.2500 kg/ha)	herbicidal effect rating, ECHORC ([4]; Rate 0.0320 kg/ha)	herbicidal effect rating, ECHORC ([4]; Rate 0.0620 kg/ha)	herbicidal effect rating, ECHORC ([4]; Rate 0.1250 kg/ha)	herbicidal effect rating, ECHORC ([4]; Rate 0.2500 kg/ha)	other results
Cn1c(C(F)(F)F)cc(=O)n(-c2ccc3snc(-c4ccccc4OCC(=O)O)c3c2)c1=O [Example 312, Acetic acid, {o-{5-[3,6-dihydro-3-methyl-2,6-dioxo-4-(trifluoromethyl)-1(2H)-pyrimidinyl]-1,2-benzisothiazol-3-yl}phenoxy}-]	5.0	6.5	7.0	7.5	0.0	3.5	4.5	6.0	4.5	6.5	9.0	9.0	4.5	6.0	9.0	9.0	6.0	6.5	9.0	9.0	herbicidal effect rating, SAGPY (Sagittaria pygmaea, L.; Rate 0.0320 kg/ha): 0.0; herbicidal effect rating, SAGPY (Sagittaria pygmaea, L.; Rate 0.0620 kg/ha): 2.0; herbicidal effect rating, SAGPY (Sagittaria pygmaea, L.; Rate 0.1250 kg/ha): 5.5; herbicidal effect rating, SAGPY (Sagittaria pygmaea, L.; Rate 0.2500 kg/ha): 6.5
Cc1ccc(OCC(=O)NO)c(-c2nsc3ccc(-n4c(=O)cc(C(F)(F)F)n(C)c4=O)cc23)c1 [Example 313, Acetohydroxamic acid, 2-{{2-{5-[3,6-dihydro-3-methyl-2,6-dioxo-4-(trifluoromethyl)-1(2H)-pyrimidinyl]-1,2-benzisothiazol-3-yl}-p-tolyl}oxy}-]	0.0	1.0	3.0	4.0	0.0	0.0	0.0	2.0	0.0	0.0	9.0	9.0	0.0	9.0	9.0	9.0	4.0	5.0	6.0	9.0	herbicidal effect rating, SAGPY (Sagittaria pygmaea, L.; Rate 0.0320 kg/ha): 0.0; herbicidal effect rating, SAGPY (Sagittaria pygmaea, L.; Rate 0.0620 kg/ha): 0.0; herbicidal effect rating, SAGPY (Sagittaria pygmaea, L.; Rate 0.1250 kg/ha): 0.0; herbicidal effect rating, SAGPY (Sagittaria pygmaea, L.; Rate 0.2500 kg/ha): 3.0
CC(Oc1ccccc1-c1nsc2ccc(-n3c(=O)cc(C(F)(F)F)n(C)c3=O)cc12)C(=O)O (stereo not drawn) [Example 314, Propionic acid, 2-{o-{5-[3,6-dihydro-3-methyl-2,6-dioxo-4-(trifluoromethyl)-1(2H)-pyrimidinyl]-1,2-benzisothiazol-3-yl}phenoxy}-]	3.0	3.0	4.0	5.0	0.0	0.0	0.0	0.0	9.0	9.0	9.0	9.0	9.0	9.0	9.0	9.0	5.0	5.0	9.0	9.0	herbicidal effect rating, SAGPY (Sagittaria pygmaea, L.; Rate 0.0320 kg/ha): 0.0; herbicidal effect rating, SAGPY (Sagittaria pygmaea, L.; Rate 0.0620 kg/ha): 0.0; herbicidal effect rating, SAGPY (Sagittaria pygmaea, L.; Rate 0.1250 kg/ha): 0.0; herbicidal effect rating, SAGPY (Sagittaria pygmaea, L.; Rate 0.2500 kg/ha): 0.0
Cn1c(C(F)(F)F)cc(=O)n(-c2ccc3snc(C(=O)O)c3c2)c1=O [Example 315, 1,2-Benzisothiazole-3-carboxylic acid, 5-[3,6-dihydro-3-methyl-2,6-dioxo-4-(trifluoromethyl)-1(2H)-pyrimidinyl]-]	0.0	0.0	0.0	2.0	0.0	0.0	3.0	3.0	0.0	0.0	5.0	9.0	9.0	9.0	9.0	9.0	0.0	0.0	0.0	3.0	herbicidal effect rating, SAGPY (Sagittaria pygmaea, L.; Rate 0.0320 kg/ha): 0.0; herbicidal effect rating, SAGPY (Sagittaria pygmaea, L.; Rate 0.0620 kg/ha): 0.0; herbicidal effect rating, SAGPY (Sagittaria pygmaea, L.; Rate 0.1250 kg/ha): 3.0; herbicidal effect rating, SAGPY (Sagittaria pygmaea, L.; Rate 0.2500 kg/ha): 4.0
CONC(=O)COc1ccc(C)cc1-c1nsc2ccc(-n3c(=O)cc(C(F)(F)F)n(C)c3=O)cc12 [Example 316, Acetamide, 2-{{2-{5-[3,6-dihydro-3-methyl-2,6-dioxo-4-(trifluoromethyl)-1(2H)-pyrimidinyl]-1,2-benzisothiazol-3-yl}-p-tolyl}oxy}-N-methoxy-]	4.5	4.0	4.5	4.0	1.0	4.5	4.5	0.0	8.5	7.5	7.5	6.0	8.0	9.0	9.0	9.0	5.5	9.0	9.0	9.0	herbicidal effect rating, SAGPY (Sagittaria pygmaea, L.; Rate 0.0320 kg/ha): 0.0; herbicidal effect rating, SAGPY (Sagittaria pygmaea, L.; Rate 0.0620 kg/ha): 3.0; herbicidal effect rating, SAGPY (Sagittaria pygmaea, L.; Rate 0.1250 kg/ha): 1.0; herbicidal effect rating, SAGPY (Sagittaria pygmaea, L.; Rate 0.2500 kg/ha): 3.0
COC(=O)c1nsc2ccc(-n3c(=O)cc(C(F)(F)F)n(C)c3=O)cc12 [Example 318, 1,2-Benzisothiazole-3-carboxylic acid, 5-[3,6-dihydro-3-methyl-2,6-dioxo-4-(trifluoromethyl)-1(2H)-pyrimidinyl]-, methyl ester]	5.0	5.0	5.0	9.0	0.0	0.0	0.0	9.0	0.0	2.0	5.0	6.0	4.0	6.0	9.0	9.0	0.0	3.0	5.0	5.0	herbicidal effect rating, SAGPY (Sagittaria pygmaea, L.; Rate 0.0320 kg/ha): 0.0; herbicidal effect rating, SAGPY (Sagittaria pygmaea, L.; Rate 0.0620 kg/ha): 0.0; herbicidal effect rating, SAGPY (Sagittaria pygmaea, L.; Rate 0.1250 kg/ha): 0.0; herbicidal effect rating, SAGPY (Sagittaria pygmaea, L.; Rate 0.2500 kg/ha): 4.0
